Results as given in patent US10736898B2, “Positive allosteric modulators of the muscarinic acetylcholine receptor M4” (Vanderbilt University, priority 2017, dated 2020).

How the values were obtained:
[1] = system: 68 primary molecular targets; assay: Eurofins LeadProfilingScreen (binding); details: at 10 μM (binding); 68 targets
Excerpt: The screen includes 68 primary molecular targets, including several CNS targets recommended by the EMEA to evaluate drug dependence potential.

[2] = biological target: T1, P450 1A2 (Homo sapiens, UniProt P05177); assay: P450 1A2 inhibition; assay type: in vitro ADME
T1 sequence (P05177 1-516): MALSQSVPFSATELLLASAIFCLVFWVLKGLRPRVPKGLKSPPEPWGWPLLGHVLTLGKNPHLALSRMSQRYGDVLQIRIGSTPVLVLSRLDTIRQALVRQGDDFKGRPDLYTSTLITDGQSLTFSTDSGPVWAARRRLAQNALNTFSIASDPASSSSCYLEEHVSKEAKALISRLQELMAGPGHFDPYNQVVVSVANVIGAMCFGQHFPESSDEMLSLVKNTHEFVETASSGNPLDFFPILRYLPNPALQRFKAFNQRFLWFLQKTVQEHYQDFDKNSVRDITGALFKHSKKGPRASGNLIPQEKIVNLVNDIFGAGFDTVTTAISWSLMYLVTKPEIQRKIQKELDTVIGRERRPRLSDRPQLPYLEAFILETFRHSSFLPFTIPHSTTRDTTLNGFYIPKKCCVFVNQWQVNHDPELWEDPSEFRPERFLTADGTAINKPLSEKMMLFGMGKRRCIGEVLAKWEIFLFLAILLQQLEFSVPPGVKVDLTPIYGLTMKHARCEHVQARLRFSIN
Method: (§1) Compound 1 was evaluated in several well-known in vitro assays to investigate both metabolism and pharmacokinetics. Bidirectional permeability/efflux was determined in MDCK-MDR1 cells, which originate from transfection of Madin Darby canine kidney (MDCK) cells with the MDR1 gene. These assays were performed according to known methods as generally described in the following references: Conde-Ceide et al. ACS Med. Chem. Lett. 2015, 6, 716-720; Morris et al. J. Med. Chem. 2014, 57, 10192-10197; and Bubser et al. ACS Chem. Neurosci. 2014, 5, 920-942.

[3] = system: male Sprague-Dawley rats; assay: Reversal of amphetamine-induced hyperlocomotion in rats; assay type: in vivo, rat
Method: Drugs: d-Amphetamine hemisulfate was obtained from Sigma (St. Louis, Mo.). Salt-correction was used to determine the correct amount of the d-amphetamine hemisulfate form in milligrams to add to sterile water in order to yield a 0.75 mg/mL solution, which would be dosed at 1 mL/kg body weight of each animal. […] The solutions were formulated so that animals were injected with a volume equal to 10 mL/kg body weight for all compounds. The appropriate amount according to the dosage was mixed in 10% Tween 80 (Sigma) 90% sterile water. The mixtures were then vortexed and stored in a 39° C. sonication bath for 1 hour, until in a microsuspension (except for the highest dose, which was a suspension).
Animals: Male Sprague-Dawley rats weighing 239-300 grams and averaging 265 g (Harlan, Inc., Indianapolis, Ind.) were used. They were housed in the animal care facility certified by the American Association for the Accreditation of Laboratory Animal Care (AALAC) under a 12-hour light/dark cycle (lights on: 6 a.m.; lights off: 6 p.m.) and had free access to food and water. The animals used in this experiment were food-deprived the evening before experimentation for oral dosing of compound/vehicle. The experimental protocols performed during the light cycle were approved by the Institutional Animals Care and Use Committee of Vanderbilt University and conformed to the guidelines established by the National Research Council Guide for the Care and Use of Laboratory Animals.
Amphetamine-induced Hyperlocomotion: Male Harlan Sprague Dawley rats were habituated in Smart Open Field locomotor activity test chambers (Hamilton-Kinder, San Diego, Calif.) with 16×16 photo beams to automatically record locomotor activity. […] They were monitored for an additional 30 minutes and then injected subcutaneously with vehicle or […] amphetamine. Animals were then monitored for an additional 60 minutes, for a total of 120 minutes. Data were expressed as changes in ambulation defined as total number of beam breaks per 5 minute interval. […]
Data Analysis: Behavioral data were analyzed using a two-way ANOVA with main effects of treatment and time. […] In addition, the total number of beam breaks from the amphetamine administration (65 min) to the end of the study (120 min) was calculated and graphed. Percent Reversal was calculated as follows using Microsoft Excel: In each animal, total ambulation from t=65 to t=120 was summed. The mean of each sum was calculated in the VAMP group. Then, for each animal, Percent Reversal was calculated with the following formula: Percent Reversal=100−{[(total ambulation in each animal from t=65 to t=120)/(mean of each sum from t=65 to t=120 in VAMP group)]*100}. The mean Percent Reversal, as well as the standard error, was calculated for each dose group using GraphPad Prism V5.04.

[4] = In vivo pharmacokinetics in dogs (IV and PO)
Method: (§2) Compound 1 was evaluated in several in vivo studies to investigate its metabolism and pharmacokinetics.
Dogs (male, Beagle, weighing approximately 8-15 kg, n=2) were dosed intravenously (0.5 mg/kg) via cephalic vein and orally (3 mg/kg) by gavage. Blood samples were collected from the jugular vein via needlestick. Blood samples were obtained at 0.083, 0.25, 0.5, 1, 2, 4, 6, 10, and 24 hours (IV) and 0.25, 0.5, 1, 2, 4, 6, 10, and 24 hours (PO) and plasma harvested for analysis. Sample preparation and bioanalysis was conducted as described above.

[5] = Rat brain:plasma distribution; assay type: in vivo
Method: as §2

[6] = Rat CLint; assay type: in vitro ADME
Method: as §1

Cc1nc(C)c2c(n1)sc1c(NCc3ccc(C(C)(C)O)cc3)ncnc12 [Compound 1, 2-(4-(((7,9-Dimethylthieno[2,3-d:4,5-d′]dipyrimidin-4-yl)amino)methyl)phenyl)propan-2-ol]
inhibition of each target in the LeadProfilingScreen [1]: < 50% | IC50 [2]: 23 µM | percent reversal of amphetamine-induced hyperlocomotion ([3]; 1 mg/kg p.o.): 30.5% | percent reversal of amphetamine-induced hyperlocomotion ([3]; 3 mg/kg p.o.): 41.1% | percent reversal of amphetamine-induced hyperlocomotion ([3]; 10 mg/kg p.o.): 54.2% | Dog oral F ([4]; 3 mg/kg PO): 28% | half-life ([4]; male, Beagle, dog, plasma, read-out: Dog Elim. t1/2 (converted)): 2.4 h | clearance ([4]; male, Beagle, plasma, dog, IV 0.5 mg/kg, read-out: Dog CLp): 24 mL/min/kg | Vd ([4]; male, Beagle, plasma, dog, IV 0.5 mg/kg, read-out: Dog Vss): 2.3 L/kg | Kp [5]: 0.74 | Kp uu ([5]; unbound): 0.5 | CLint scaled [6]: 78 mL/min/kg
